Several values for one entry are separate records, joined by “and”; a condition that tells them apart may be missing. Equal values may be shown once.
Assay: Tissue distribution and elimination of total radioactivity (total residues) after oral ^3H-ADP for 7 d
Assay type: in vivo, carp
Set-up: Ke of total residues: unit not given here
Procedure: (0.1 Ci/g) through oral gavage for 7 consecutive days. All the animals were housed on the basis of their group in the cages or aquaria throughout the whole study period. A group of animals was slaughtered through exsanguination under diethyl ether inhalation of anesthesia in the period of 6 h, 1, 3, 7, 14, and 21 d after the administration. The blood samples were immediately collected into the heparinized tubes and was centrifuged at 1920 × g at 4 °C for 10 min to obtain the plasma. The tissues from the heart, liver, spleen, lung, kidney, craw (broilers), stomach, intestine, fat, skin, muscle, thymus, pancreas, bile, bladder, hair (scale for carp), genital gland, adrenal glands, swim bladder (carp), brain, lymph, and bursa (broilers) were carefully excised and collected. The tissues were thoroughly rinsed with the deionized water to remove the residuary blood, blotted to dryness, and finally to perform the homogenization. In order to avoid cross-contamination the dissecting instruments were washed during the tissue procurements. The blank tissues were collected in order to provide control matrices. The total radioactivity levels in each sample were determined through LSC. The samples extracted from the plasma, bile, and tissues of the liver, kidney, muscle, and fat/skin were analyzed through LC/MS-IT-TOF and v. ARC radiometric detection for metabolite profiling.
Measurements of the total radioactivity in each sample were conducted by Packard Tri-Carb 2900 TR liquid scintillation counter (PerkinElmer Life and Analytical Sciences). The detection time was 10 min for two cycles. The scintillation counter data were automatically corrected for counting efficiency by instrument-stored quench curve which was drawn with a series of sealed quenched […] standards. The actual radioactivity of each sample was calculated by subtracting the background value form the mean radioactivity in two blank samples. All the samples were analyzed in duplicate if the sample size allowed this. If the results were differed by more than 10% from the mean value, the samples were reanalyzed. The samples with LSC counts less than 2-fold of the level of the running background were considered to contain insufficient radioactivity for reliable quantification.
Aliquots of liquid samples (urine, plasma, bile and raised water, 200 μL) were mixed with 10 mL of Ultima Gold^TM scintillation fluid for the direct analysis by LSC. Aliquots of solid samples (feces and tissues, 200 mg) were digested overnight with 2 mL tissue solubilizer at 50 °C in a shaking water bath, followed by adding 200 μL of 0.1 mol/L EDTA-Na and 200 μL of 30% H2O2, and was bathed at 50 °C for 2 h to bleach. The obtained transparent liquid were mixed with 10 mL of scintillation fluid and finally were counted by LSC. The digestion efficiency was determined by using the blank samples spiked with ^3 H standard for digestion, and the measured radioactivity content in the digested samples were adjusted by using the digestion efficiency values.
The concentrations of ADP and/or its metabolites were analyzed by using the following equation: C = L/(2.22 × 10^9 × RM), where C is the concentration of ADP or/and its metabolites (mg/kg), L is the LSC count (dpm), R is the specific activity of the administered dose (0.1 Ci/g), and M is the weight or volume of samples (kg or L). The results are expressed as mean ± SD. The elimination kinetics of terminal phase for ADP and its metabolites were conducted by using the WinNonlin linear regression program (Pharsight corporation, Statistical consultants, Inc., Kentucky, USA).

[3H]c1c(Cc2cnc(N)nc2N)cc(OC)c(N(C)C)c1OC [^3H-ADP]
Ke of total residues (carp Bile): 0.38
Concentrations of total residues (carp Bile, 0.25 d after 5 mg/kg b. w. for 7 days): 334.6 ± 69.0 mg/kg and 334.60 ± 69.02 mg/kg
Concentrations of total residues (carp Bile, 1 d after 5 mg/kg b. w. for 7 days): 89.59 ± 3.87 mg/kg
Concentrations of total residues (carp Bile, 3 d after 5 mg/kg b. w. for 7 days): 24.33 ± 1.91 mg/kg
Concentrations of total residues (carp Bile, 7 d after 5 mg/kg b. w. for 7 days): 1.34 ± 0.29 mg/kg
Concentrations of total residues (carp Bile, 14 d after 5 mg/kg b. w. for 7 days): 0.13 ± 0.05 mg/kg
Concentrations of total residues (carp Bile, 21 d after 5 mg/kg b. w. for 7 days): 0.01 ± 0.00 mg/kg
Ke of total residues (carp Blood): 0.20
Concentrations of total residues (carp Blood, 0.25 d after 5 mg/kg b. w. for 7 days): 1.73 ± 0.18 mg/kg
Concentrations of total residues (carp Blood, 1 d after 5 mg/kg b. w. for 7 days): 1.06 ± 0.10 mg/kg
Concentrations of total residues (carp Blood, 3 d after 5 mg/kg b. w. for 7 days): 0.40 ± 0.08 mg/kg
Concentrations of total residues (carp Blood, 7 d after 5 mg/kg b. w. for 7 days): 0.19 ± 0.02 mg/kg
Concentrations of total residues (carp Blood, 14 d after 5 mg/kg b. w. for 7 days): 0.05 ± 0.01 mg/kg
Ke of total residues (carp Branchia): 0.23
Concentrations of total residues (carp Branchia, 0.25 d after 5 mg/kg b. w. for 7 days): 12.73 ± 1.93 mg/kg
Concentrations of total residues (carp Branchia, 1 d after 5 mg/kg b. w. for 7 days): 5.46 ± 0.84 mg/kg
Concentrations of total residues (carp Branchia, 3 d after 5 mg/kg b. w. for 7 days): 1.66 ± 0.08 mg/kg
Concentrations of total residues (carp Branchia, 7 d after 5 mg/kg b. w. for 7 days): 0.22 ± 0.04 mg/kg
Concentrations of total residues (carp Branchia, 14 d after 5 mg/kg b. w. for 7 days): 0.05 ± 0.00 mg/kg
Concentrations of total residues (carp Branchia, 21 d after 5 mg/kg b. w. for 7 days): 0.01 ± 0.00 mg/kg
Ke of total residues (carp Colla piscis): 0.24
Concentrations of total residues (carp Colla piscis, 0.25 d after 5 mg/kg b. w. for 7 days): 2.78 ± 0.76 mg/kg
Concentrations of total residues (carp Colla piscis, 1 d after 5 mg/kg b. w. for 7 days): 1.50 ± 0.22 mg/kg
Concentrations of total residues (carp Colla piscis, 3 d after 5 mg/kg b. w. for 7 days): 0.41 ± 0.04 mg/kg
Concentrations of total residues (carp Colla piscis, 7 d after 5 mg/kg b. w. for 7 days): 0.10 ± 0.02 mg/kg
Concentrations of total residues (carp Colla piscis, 14 d after 5 mg/kg b. w. for 7 days): 0.03 ± 0.01 mg/kg
Ke of total residues (carp Heart): 0.30
Concentrations of total residues (carp Heart, 0.25 d after 5 mg/kg b. w. for 7 days): 5.37 ± 0.50 mg/kg
Concentrations of total residues (carp Heart, 1 d after 5 mg/kg b. w. for 7 days): 2.58 ± 0.57 mg/kg
Concentrations of total residues (carp Heart, 3 d after 5 mg/kg b. w. for 7 days): 1.11 ± 0.08 mg/kg
Concentrations of total residues (carp Heart, 7 d after 5 mg/kg b. w. for 7 days): 0.34 ± 0.05 mg/kg
Concentrations of total residues (carp Heart, 14 d after 5 mg/kg b. w. for 7 days): 0.14 ± 0.02 mg/kg
Concentrations of total residues (carp Heart, 21 d after 5 mg/kg b. w. for 7 days): 0.01 ± 0.00 mg/kg
Ke of total residues (carp Intestine): 0.21
Concentrations of total residues (carp Intestine, 1 d after 5 mg/kg b. w. for 7 days): 5.35 ± 0.51 mg/kg
Concentrations of total residues (carp Intestine, 3 d after 5 mg/kg b. w. for 7 days): 1.85 ± 0.25 mg/kg
Concentrations of total residues (carp Intestine, 7 d after 5 mg/kg b. w. for 7 days): 0.42 ± 0.09 mg/kg
Concentrations of total residues (carp Intestine, 14 d after 5 mg/kg b. w. for 7 days): 0.16 ± 0.06 mg/kg
Ke of total residues (carp Kidney): 0.19
Concentrations of total residues (carp Kidney, 0.25 d after 5 mg/kg b. w. for 7 days): 47.64 ± 9.81 mg/kg
Concentrations of total residues (carp Kidney, 1 d after 5 mg/kg b. w. for 7 days): 8.30 ± 1.02 mg/kg
Concentrations of total residues (carp Kidney, 3 d after 5 mg/kg b. w. for 7 days): 3.83 ± 0.39 mg/kg
Concentrations of total residues (carp Kidney, 7 d after 5 mg/kg b. w. for 7 days): 1.57 ± 0.11 mg/kg
Concentrations of total residues (carp Kidney, 14 d after 5 mg/kg b. w. for 7 days): 0.72 ± 0.10 mg/kg
Concentrations of total residues (carp Kidney, 21 d after 5 mg/kg b. w. for 7 days): 0.10 ± 0.02 mg/kg
Ke of total residues (carp Liver): 0.10
Concentrations of total residues (carp Liver, 0.25 d after 5 mg/kg b. w. for 7 days): 15.59 ± 1.52 mg/kg
Concentrations of total residues (carp Liver, 3 d after 5 mg/kg b. w. for 7 days): 2.53 ± 0.21 mg/kg
Concentrations of total residues (carp Liver, 7 d after 5 mg/kg b. w. for 7 days): 0.40 ± 0.08 mg/kg
Concentrations of total residues (carp Liver, 14 d after 5 mg/kg b. w. for 7 days): 0.30 ± 0.05 mg/kg
Concentrations of total residues (carp Liver, 21 d after 5 mg/kg b. w. for 7 days): 0.09 ± 0.01 mg/kg
Ke of total residues (carp Muscle): 0.23
Concentrations of total residues (carp Muscle, 0.25 d after 5 mg/kg b. w. for 7 days): 2.26 ± 0.62 mg/kg
Concentrations of total residues (carp Muscle, 1 d after 5 mg/kg b. w. for 7 days): 1.96 ± 0.48 mg/kg
Concentrations of total residues (carp Muscle, 3 d after 5 mg/kg b. w. for 7 days): 0.96 ± 0.10 mg/kg
Concentrations of total residues (carp Muscle, 7 d after 5 mg/kg b. w. for 7 days): 0.43 ± 0.09 mg/kg
Concentrations of total residues (carp Muscle, 14 d after 5 mg/kg b. w. for 7 days): 0.08 ± 0.00 mg/kg
Ke of total residues (carp Roe): 0.16
Concentrations of total residues (carp Roe, 0.25 d after 5 mg/kg b. w. for 7 days): 4.74 ± 1.03 mg/kg
Concentrations of total residues (carp Roe, 1 d after 5 mg/kg b. w. for 7 days): 3.86 ± 0.76 mg/kg
Concentrations of total residues (carp Roe, 3 d after 5 mg/kg b. w. for 7 days): 2.24 ± 0.36 mg/kg
Concentrations of total residues (carp Roe, 7 d after 5 mg/kg b. w. for 7 days): 0.85 ± 0.40 mg/kg
Concentrations of total residues (carp Roe, 14 d after 5 mg/kg b. w. for 7 days): 0.47 ± 0.13 mg/kg
Concentrations of total residues (carp Roe, 21 d after 5 mg/kg b. w. for 7 days): 0.09 ± 0.01 mg/kg
Ke of total residues (carp Scales): 0.24
Concentrations of total residues (carp Scales, 0.25 d after 5 mg/kg b. w. for 7 days): 2.59 ± 0.32 mg/kg
Concentrations of total residues (carp Scales, 1 d after 5 mg/kg b. w. for 7 days): 2.01 ± 0.45 mg/kg
Concentrations of total residues (carp Scales, 3 d after 5 mg/kg b. w. for 7 days): 0.80 ± 0.04 mg/kg
Concentrations of total residues (carp Scales, 7 d after 5 mg/kg b. w. for 7 days): 0.29 ± 0.07 mg/kg
Concentrations of total residues (carp Scales, 14 d after 5 mg/kg b. w. for 7 days): 0.06 ± 0.01 mg/kg
Ke of total residues (carp Skin): 0.29
Concentrations of total residues (carp Skin, 0.25 d after 5 mg/kg b. w. for 7 days): 3.66 ± 0.62 mg/kg
Concentrations of total residues (carp Skin, 1 d after 5 mg/kg b. w. for 7 days): 2.82 ± 0.91 mg/kg
Concentrations of total residues (carp Skin, 3 d after 5 mg/kg b. w. for 7 days): 1.48 ± 0.16 mg/kg
Concentrations of total residues (carp Skin, 7 d after 5 mg/kg b. w. for 7 days): 0.87 ± 0.17 mg/kg
Concentrations of total residues (carp Skin, 14 d after 5 mg/kg b. w. for 7 days): 0.07 ± 0.01 mg/kg
Ke of total residues (carp Spleen): 0.23
Concentrations of total residues (carp Spleen, 0.25 d after 5 mg/kg b. w. for 7 days): 63.23 ± 2.89 mg/kg
Concentrations of total residues (carp Spleen, 1 d after 5 mg/kg b. w. for 7 days): 27.12 ± 4.89 mg/kg
Concentrations of total residues (carp Spleen, 3 d after 5 mg/kg b. w. for 7 days): 8.17 ± 0.59 mg/kg
Concentrations of total residues (carp Spleen, 7 d after 5 mg/kg b. w. for 7 days): 0.73 ± 0.17 mg/kg
Concentrations of total residues (carp Spleen, 14 d after 5 mg/kg b. w. for 7 days): 0.25 ± 0.05 mg/kg
Concentrations of total residues (carp Spleen, 21 d after 5 mg/kg b. w. for 7 days): 0.03 ± 0.00 mg/kg
